Source: PMC7764069 (Microorganisms, 2020)
Where two headings read alike, the source gives them in different places.

Tests used:
A(H1N1)pdm09 virus = test system: A(H1N1)pdm09 virus; set-up: method as in PMID 31837268; conditions: nude mice, BXM 10 mg/kg once daily for 28 days; untreated controls 5 days; cited from earlier work
[1] = test system: splenic T, B and NK cells; conditions: for frequency of proliferating B cells: day 4 post infection; for frequency of proliferating B cells / percentage of proliferating T cells: CP 100 mg/kg i.p.
[2] = BXA in humans; mimicked by 15 mg/kg BXM BID for 5 days orally in immunocompetent mice; cited from earlier work

COC(=O)OCOc1c2n(ccc1=O)N([C@@H]1c3ccccc3SCc3c1ccc(F)c3F)[C@@H]1COCCN1C2=O [BXM, baloxavir marboxil]
median survival time (A(H1N1)pdm09 virus): 49 days

O=P1(N(CCCl)CCCl)NCCCO1 (stereo not shown) [CP, cyclophosphamide]
NK proliferative capacity ([1]; following CP administration, day 4 p.i.): no significant decline
frequency of proliferating B cells ([1]; infected animals, without CP 94.7%): 40.7%
percentage of proliferating T cells ([1]; infected mice, day 4 p.i., without CP […]): 72.6%
percentage of proliferating T cells ([1]; uninfected mice, day 4 p.i., without CP 92.2%): 63.1%
frequency of proliferating B cells ([1]; uninfected mice, without CP 82.5%): 36.2%

O=C1c2c(O)c(=O)ccn2N([C@@H]2c3ccccc3SCc3c2ccc(F)c3F)[C@@H]2COCCN12 [BXA, baloxavir acid]
target plasma concentration [2]: 6.85 ng/mL
